According to article PMC6322304, “Phytohormone treatment induces generation of cryptic peptides with antimicrobial activity in the Moss Physcomitrella patens” (BMC Plant Biology, 2019):
Ends that are not written are not given here.

What was measured:
B. subtilis 168 HT = assay type: cell-based, Bacillus subtilis; details: 20 h
Protocol: (§1) A serial dilution method in sterile 96 Well Collection Plates (Corning 3870) in liquid MHB medium was used to define the minimum inhibitory concentration (MIC) of the peptides against E. coli K-12 MG 1655 and B. subtilis 168 HT as previously described. Diluted peptide (50 μL) in MHB medium was added to each well at the appropriate concentration (128 to 0.25 μg/mL), along with 50 μL of bacterial suspension at a concentration of 10^6 CFU/mL of microbial cells. The experiment was carried out in three replicates. Liquid MHB medium without the addition of the peptide used as a negative control. The plates were incubated at 37°С for 20 h without mixing. The MIC of the peptides was assessed visually and by measuring the spectrophotometric absorbance at 570 nm to identify the concentration that inhibited the visible growth of bacteria.

E. coli K-12 MG 1655 = assay type: cell-based, Escherichia coli; details: K-12, 20 h
Protocol: as §1

[1] = tested on: E. coli and B. subtilis bacteria; assay type: cell-based, Escherichia coli; Bacillus subtilis
Protocol: as §1

OPR3 gene = test: qRT-PCR of pathogenesis-related gene in treated protonema; assay type: cell-based, Physcomitrella patens; details: protonema incubated 1 h; MeJA 50 μM to 1 mM, SA 10 μM to 1 mM (Figure S8)
Protocol: Protonemata of the moss P. patens subsp. patens (“Gransden 2004”, Freiburg) were grown in 200 mL liquid Knop medium with 500 mg/L ammonium tartrate under white light with a photon flux of 61 μmol/m^2•s under a 16-h photoperiod at 24°C. For mass spectrometry analysis, five-d-old protonema tissue was treated with 0.4 mM MeJA and incubated for 1 h. […] To analyze antimicrobial activity of secretome five-d-old- protonema tissue was treated with different concentration of MeJA. Treatment with cocktail of protease inhibitors was performed according to the dilution 1:200, as recommended by the manufacturer (P1860 Sigma Aldrich, USA). At least three independent biological replicates were used for each type of analysis. To test the gene expression induced by the peptides, five-d-old protonema tissue was treated with either mock solution or 1 μM peptide solution and harvested after 2, 4, 8 and 24 h later. […]
Total RNA from protonemata was isolated as previously described. Quality and quantity were evaluated using electrophoresis on agarose gel with ethidium bromide staining. Total RNA concentration of samples was precisely measured using the Quant-iT™ RNA Assay Kit, 5–100 ng on a Qubit 3.0 (Invitrogen, US) fluorometer. cDNA was synthesized using the MMLV RT kit (Evrogen, Russia) according to the manufacturer’s recommendations. […]

| Compound | % inhibition, B. subtilis (B. subtilis 168 HT) [%] | MIC, B. subtilis (B. subtilis 168 HT) [µg/mL] | % inhibition, E. coli (E. coli K-12 MG 1655) [%] | MIC, E. coli (E. coli K-12 MG 1655) [µg/mL] | concentration at which bacterial growth was inhibited ([1]; on day 1 after inoculation, bacterium not named) [µg/mL] | response of OPR3 transcription to hormone treatment (qRT-PCR) (OPR3 gene) | minimum inhibitory concentration (MIC) ([1]; bacterium not given, serial dilution with E. coli and B. subtilis) [µg/mL] |
| --- | --- | --- | --- | --- | --- | --- | --- |
| INIINAPLQGFKIA [INIINAPLQGFKIA] | >90 | 32 | >90 | 16 | – | – | – |
| KIKVAINGFGRIG [synthetic copy of a cellular moss peptide, fragment of glyceraldehyde-3-phosphate dehydrogenase (GAPDH)] | – | – | – | – | 128 | – | – |
| CC/C=C\CC1C(=O)CCC1CC(=O)OC (centres unmarked) [MeJA, methyl jasmonate] | – | – | – | – | – | clear response | – |
| LVQIGTKIVGVGRNYAAH [LVQIGTKIVGVGRNYAAH] | >90 | 64 | >90 | 64 | – | – | 64 |
